Data: ChEMBL document CHEMBL1158596, “Synthetic studies on selective adenosine A2A receptor antagonists. Part II: synthesis and structure-activity relationships of novel benzofuran derivatives” (Bioorg Med Chem Lett, 2010)
Converted amounts (≈) assume the structure as drawn.

Assays:
[1] = tested on: Mus musculus; assay: Antiparkinsonian effect in mouse assessed as inhibition of CGS-21680-induced catalepsy at 10 mg/kg, po; assay type: functional; conditions: for inhibition in vivo at 10 mg/kg: Mus musculus
[2] = Solubility n JP2 fluid; assay type: physicochemical
[3] = target: Adenosine receptor A2a (Homo sapiens) (UniProt P29274); assay: Displacement of [3H]CGS21680 from human adenosine A2A receptor at 0.1 umol/L by scintillation counting
[4] = target: Adenosine receptor A2a (Homo sapiens) (UniProt P29274); assay: Displacement of [3H]CGS21680 from human adenosine A2A receptor at 0.01 umol/L by scintillation counting
[5] = Intrinsic clearance in human liver microsome; assay type: ADME; conditions: liver microsomes
[6] = Intrinsic clearance in marmoset liver microsome […]; assay type: ADME, Callithrix jacchus; conditions: liver microsomes
[7] = target: T1, Adenosine receptor A2b (Homo sapiens) (UniProt P29275); assay: Antagonist activity at human adenosine A2B receptor at 1 umol/L; assay type: functional
T1 sequence (whole entry): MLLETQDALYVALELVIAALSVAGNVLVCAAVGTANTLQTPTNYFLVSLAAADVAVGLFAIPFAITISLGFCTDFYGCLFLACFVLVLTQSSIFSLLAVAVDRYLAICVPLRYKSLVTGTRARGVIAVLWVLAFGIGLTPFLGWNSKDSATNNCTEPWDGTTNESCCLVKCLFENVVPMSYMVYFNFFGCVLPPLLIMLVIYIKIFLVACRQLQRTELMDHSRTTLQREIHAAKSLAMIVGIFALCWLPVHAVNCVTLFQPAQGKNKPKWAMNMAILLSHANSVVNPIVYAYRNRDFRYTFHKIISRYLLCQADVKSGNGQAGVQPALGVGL

[8] = target: T2, Adenosine receptor A1 (Homo sapiens) (UniProt P30542); assay: Antagonist activity at human adenosine A1 receptor at 1 umol/L; assay type: functional
T2 sequence (whole entry): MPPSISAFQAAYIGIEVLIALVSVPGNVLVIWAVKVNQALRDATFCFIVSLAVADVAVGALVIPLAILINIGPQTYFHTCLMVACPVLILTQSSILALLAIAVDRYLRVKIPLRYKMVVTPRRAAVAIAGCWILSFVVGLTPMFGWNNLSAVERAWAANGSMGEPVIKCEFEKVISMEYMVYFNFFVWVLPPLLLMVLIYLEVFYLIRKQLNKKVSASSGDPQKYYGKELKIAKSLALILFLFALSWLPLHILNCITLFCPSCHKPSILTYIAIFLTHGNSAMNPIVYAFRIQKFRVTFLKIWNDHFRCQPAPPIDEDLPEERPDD

Adenosine receptor A2a (Homo sapiens), sequence (P29274 whole entry): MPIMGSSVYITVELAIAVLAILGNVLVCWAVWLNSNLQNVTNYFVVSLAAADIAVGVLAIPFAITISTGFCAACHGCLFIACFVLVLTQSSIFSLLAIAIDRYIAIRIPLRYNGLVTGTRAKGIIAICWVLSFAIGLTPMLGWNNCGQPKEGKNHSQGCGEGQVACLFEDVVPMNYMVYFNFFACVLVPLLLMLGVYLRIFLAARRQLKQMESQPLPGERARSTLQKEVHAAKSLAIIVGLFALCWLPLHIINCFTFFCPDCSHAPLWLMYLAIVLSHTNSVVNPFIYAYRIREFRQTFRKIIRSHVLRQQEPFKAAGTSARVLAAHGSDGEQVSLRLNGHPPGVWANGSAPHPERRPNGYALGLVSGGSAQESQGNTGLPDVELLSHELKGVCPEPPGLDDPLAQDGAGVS

SMILES | inhibition in vivo at 10 mg/kg [1] | solubility [2] | inhibition [3] | inhibition [4] | CLint scaled [5] | CLint scaled [6] | inhibition (INH) [1] | inhibition [7] | inhibition [8]
COc1ccc(N2CCOCC2)c2cc(C(=O)Nc3ccc(CN4CCC(O)CC4)cc3)oc12 | 50% | 47 µg/mL (≈ 101 µM) | 74% | 39% |  |  |  |  | 
COc1ccc(-c2cnccn2)c2cc(C(=O)Nc3ccncc3)oc12 |  |  | 22% | 24% | 154 mL/min/kg |  |  |  | 
COc1ccc(N2CCOCC2)c2cc(C(=O)NC3CCN(c4ncccn4)CC3)oc12 |  |  | 26% | -2% |  |  |  |  | 
COc1ccc(-c2ccccn2)c2cc(C(=O)Nc3ccncc3)oc12 |  |  | 27% | 4% | 37.2 mL/min/kg |  |  |  | 
CNC(=O)c1cc2c(N3CCOCC3)ccc(OC)c2o1 |  | 97 µg/mL (≈ 334 µM) | 58% | 23% |  | 21.7 mL/min/kg |  |  | 
COc1ccc(-c2cnccn2)c2cc(C(=O)Nc3ccc(Cn4ccnc4)cc3)oc12 |  |  | 44% | 20% | < 7.83 mL/min/kg |  |  |  | 
COc1ccc(-c2cccnc2)c2cc(C(=O)Nc3ccc(Cn4ccnc4)cc3)oc12 | 60% |  | 83% | 46% | 53 mL/min/kg |  |  |  | 
COc1ccc(N2CCOCC2)c2cc(C(=O)Nc3ccc(Cn4ccnc4)cc3)oc12 |  | 2 µg/mL (≈ 4.62 µM) | 89% | 50% |  | 133 mL/min/kg |  |  | 
COc1ccc(N2CCOCC2)c2oc(C(=O)Nc3ccncc3)cc12 |  |  | 77% | 26% |  |  |  |  | 
COc1ccc(-c2ccccc2)c2cc(C(=O)Nc3ccncc3)oc12 |  |  | 87% | 29% | 580 mL/min/kg |  | 40% |  | 
CCNC(=O)c1cc2c(N3CCOCC3)ccc(OC)c2o1 | 44% |  | 87% | 37% |  |  |  |  | 
COc1ccc(-c2cccnc2)c2cc(C(=O)Nc3ccncc3)oc12 | 38% |  | 67% | 27% | 57 mL/min/kg |  |  |  | 
COc1ccc(N2CCOCC2)c2cc(C(=O)Nc3ccncc3)oc12 | 76% | 87 µg/mL (≈ 246 µM) | 73% | 30% |  | < 7.17 mL/min/kg |  | 21% | 4%
COc1c(N2CCOCC2)ccc2cc(C(=O)Nc3ccncc3)oc12 |  |  | -5% |  |  |  |  |  | 
COc1ccc(-c2ccncc2)c2cc(C(=O)Nc3ccncc3)oc12 | 48% |  | 72% | 18% | 32.8 mL/min/kg |  |  |  | 
COc1ccc(-c2ccncc2)c2cc(C(=O)Nc3ccc(Cn4ccnc4)cc3)oc12 | 60% |  | 90% | 56% | 40.7 mL/min/kg |  |  |  | 
